# According to ChEMBL document CHEMBL1201862, “PubChem BioAssay data set” (2004):
# Where “and” joins values, the source holds several entries; their conditions need not be identical. Equal entries are not always repeated. Calls of active or inactive are those of the source.
# Experiments:
# [1] = inhibitors of intracellular T. cruzi replication, confirmation, NIH3T3 host cells, beta-gal luminescence (AID 2044); format: functional, cell-based;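 also: intracellular parasites grown in NIH/3T3 mouse fibroblasts as host cells; luminescent beta-galactosidase reporter signal from transgenic T. cruzi replicating inside host cells; inhibitors lower the luminescence signal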
# [2] = cytotoxicity toward NIH3T3 fibroblasts, dose response, counter-screen, cell-based, ATP luminescence, mouse fibroblasts (AID 2010); format: functional;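 also: cells exposed to compound for about 90 hours before reading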
# [3] = biological target: T1, Heat shock factor protein 1 (Mus musculus, UniProt P38532); experiment: inhibition of MG132-induced HSE-luciferase signal, confirmation, cell-based, NIH3T3, luminescence, dose retest (AID 2382); format: functional;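 also: NIH3T3 fibroblasts with HSF1-driven luciferase reporter stressed by proteasome inhibitor MG132; luminescence from HSF1-driven luciferase expression after 8 hours of MG132 stress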
# T1 sequence (P38532 whole entry): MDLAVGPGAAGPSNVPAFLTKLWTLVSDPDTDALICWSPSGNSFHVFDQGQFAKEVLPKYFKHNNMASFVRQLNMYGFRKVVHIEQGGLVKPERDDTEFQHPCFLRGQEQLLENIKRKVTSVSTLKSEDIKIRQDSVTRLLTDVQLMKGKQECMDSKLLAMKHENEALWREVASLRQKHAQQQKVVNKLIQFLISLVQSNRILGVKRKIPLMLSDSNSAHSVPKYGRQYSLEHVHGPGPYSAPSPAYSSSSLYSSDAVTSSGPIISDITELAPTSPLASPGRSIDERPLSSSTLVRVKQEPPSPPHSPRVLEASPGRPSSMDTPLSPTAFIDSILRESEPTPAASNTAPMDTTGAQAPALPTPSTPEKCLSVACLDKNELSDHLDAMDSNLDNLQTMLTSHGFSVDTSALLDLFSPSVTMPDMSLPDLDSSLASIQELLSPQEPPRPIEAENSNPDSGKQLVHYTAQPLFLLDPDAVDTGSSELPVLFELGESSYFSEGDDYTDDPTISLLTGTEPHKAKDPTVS
# Cytochrome P450 2C19 = Cytochrome P450 2C19 (Homo sapiens, UniProt P33261); experiment: Cytochrome panel assay with activity outcomes. Panel member name: p450-cyp2c19 Compounds with AC50 equal or less than 10 uM are considered active; format: functional
# Sequence of Cytochrome P450 2C19 (P33261 whole entry): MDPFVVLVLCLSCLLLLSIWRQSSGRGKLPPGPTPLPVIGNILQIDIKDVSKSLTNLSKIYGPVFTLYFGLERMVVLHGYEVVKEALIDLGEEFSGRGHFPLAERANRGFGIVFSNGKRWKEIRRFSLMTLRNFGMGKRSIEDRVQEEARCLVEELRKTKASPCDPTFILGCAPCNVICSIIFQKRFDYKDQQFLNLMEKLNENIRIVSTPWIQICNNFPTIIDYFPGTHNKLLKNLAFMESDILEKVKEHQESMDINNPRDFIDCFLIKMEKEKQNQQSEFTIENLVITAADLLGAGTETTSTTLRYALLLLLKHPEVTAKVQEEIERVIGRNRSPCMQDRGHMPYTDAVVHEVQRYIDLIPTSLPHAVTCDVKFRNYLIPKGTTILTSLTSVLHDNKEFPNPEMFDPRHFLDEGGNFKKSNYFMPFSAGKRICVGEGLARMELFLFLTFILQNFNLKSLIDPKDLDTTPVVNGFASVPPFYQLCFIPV
# Streptococcus = experiment: Group A Streptococcus viability loss, dose response, counter-screen for streptokinase expression inhibitor project, luminescence, BacTiterGlo (AID 1915); format: functional, organism-based;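 also: potency for reduction of bacterial viability or growth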
# [4] = tested on: Streptococcus sp. 'group A'; experiment: growth inhibition of control SK(-) GAS strain, dose response, counter-screen for streptokinase expression inhibitor project, luminescence, kanamycin, BacTiterGlo, confirmation (AID 1900); format: functional, organism-based
# [5] = inhibitors of SNCA 5'UTR-driven reporter translation, confirmation, H4 neuroglioma cells, luminescence (AID 1988); format: functional, cell-based
# [6] = inhibitors of firefly luciferase expression or activity, dose response, H4 neuroglioma cells, luminescence (AID 1990); format: functional, cell-based
# [7] = Luminescence Cell-Based Dose Response HTS to Identify Inhibitors of 5'UTR Stem-Loop Driven Prion Protein mRNA Translation in H4 Neuroglioblastoma Cells. [Related pubchem assays: 1827 (Project Summary), 1813 (Primary HTS)]; format: functional
# Cytochrome P450 1A2 = biological target: T2, Cytochrome P450 1A2 (Homo sapiens, UniProt P05177);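 also: PubChem cytochrome P450 panel assay, CYP1A2 panel member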
# T2 sequence (P05177 whole entry): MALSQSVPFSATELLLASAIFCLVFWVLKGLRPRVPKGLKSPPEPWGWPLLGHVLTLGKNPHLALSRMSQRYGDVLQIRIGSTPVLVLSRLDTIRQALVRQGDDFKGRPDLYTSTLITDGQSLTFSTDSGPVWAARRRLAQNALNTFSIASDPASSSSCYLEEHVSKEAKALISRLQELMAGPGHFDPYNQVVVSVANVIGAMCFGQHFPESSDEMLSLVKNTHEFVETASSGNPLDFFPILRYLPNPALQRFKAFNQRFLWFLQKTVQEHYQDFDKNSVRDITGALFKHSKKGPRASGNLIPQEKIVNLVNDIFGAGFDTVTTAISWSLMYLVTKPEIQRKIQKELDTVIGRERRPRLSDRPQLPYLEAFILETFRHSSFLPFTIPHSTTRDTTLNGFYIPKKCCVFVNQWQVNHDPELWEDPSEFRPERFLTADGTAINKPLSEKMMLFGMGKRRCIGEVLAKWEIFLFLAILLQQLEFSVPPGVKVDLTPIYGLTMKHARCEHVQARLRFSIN
# INS1 = experiment: beta cell apoptosis inhibitors, cytokine rescue, dose response, luminescence, retest (AID 449756); format: functional, cell-based; conditions: Rattus norvegicus;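 also: cell death triggered by IL-1 beta plus TNF-alpha plus IFN-gamma mixture; protective hits raise ATP signal compared with cytokine alone wells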
smiles,measurement,setting,value
CCc1ccc(CN2CCCC(C(=O)c3sccc3C)C2)o1 (configuration not stated),EC50,[1],0.159 µM (active)
same,EC50,[2],16.9 µM (active)
Cc1cc(Cl)ccc1OCCCC(=O)N1CCOCC1,EC50,[3],> 195 µM (not active)
O=C(Nn1c(-c2ccncc2)nc2ccccc2c1=O)c1ccc(Br)cc1,EC50,[1],0.75 µM (active)
same,EC50,[2],> 60 µM (not active)
O=C1N=C2SCCN2/C1=C\c1c(Cl)cccc1Cl,AC50,Cytochrome P450 2C19; read-out: AC50,28.2 µM (inconclusive)
CCNC(=O)CNC(=O)c1nn(Cc2ccccc2)c(=O)c2ccccc12,EC50,[3],> 195 µM (not active)
COc1cccc(/C=C/C(=O)OCC(=O)Nc2nnc(-c3ccccc3)o2)c1,EC50,Streptococcus,11.1 µM (active)
same,EC50,[4],6.11 µM (active)
Oc1[nH]c2ccc(Br)cc2c1N=NC(S)=Nc1ccc(F)cc1,EC50,[5],9.77 µM (active)
same,EC50,[1],1.63 µM (active)
same,EC50,Streptococcus,1.39 µM (active)
same,EC50,[6],15.5 µM (inconclusive)
same,EC50,[4],0.074 µM (active)
same,EC50,[7],> 120 µM (not active)
same,EC50,[2],7.03 µM (active)
COc1cccc(NC(=O)c2oc3ccccc3c2NC(=O)c2ccc3c(c2)OCO3)c1,AC50,Cytochrome P450 1A2,6.31 µM (inconclusive)
COc1ccc(CNC(=O)c2cnc3scc(C)n3c2=O)cc1,EC50,[3],> 195 µM (not active)
O=C1SCC(c2ccccc2)=NN1Cc1ccccc1,EC50,[3],> 195 µM (not active)
Cc1ccc(OCCCCNC2CCCCC2)c(C)c1,EC50,[1],1.62 µM (active)
same,EC50,[2],> 60 µM (not active)
CCOC(=O)c1c(-c2cccs2)csc1NC(=O)CN1CCOCC1,EC50,[5],> 120 µM (not active)
same,EC50,[6],20.9 µM (active)
same,EC50,[7],80.6 µM (active)
CCc1ccc(C2=NN(CCC(=O)NC(C)CCc3ccccc3)C(=O)CC2)cc1 (configuration not stated),EC50,[5],119 µM (active)
same,EC50,[6],> 120 µM (not active)
same,EC50,[7],23.8 µM (active)
OC(CNCCc1ccccc1)COc1ccc(OCC(O)CNCCc2ccccc2)cc1 (configuration not stated),EC50,[5],8.27 µM (active)
same,EC50,[6],9.08 µM (active)
same,EC50,[7],> 120 µM (not active)
CCOc1ccc(-n2c(=O)[nH]cc(C(=O)N3CCCc4ccccc43)c2=O)cc1,AC50,Cytochrome P450 2C19; read-out: AC50,5.01 µM (inconclusive)
CCOC(=O)c1ccc(Cl)c(NC(=O)c2ccc(-c3ccccc3)cc2)c1,AC50,Cytochrome P450 1A2,28.2 µM (inconclusive)
COc1cccc(-c2nc(-c3ccc(NC(=O)c4cccnc4)cc3)no2)c1,AC50,INS1,1.33 µM (active)
Cn1nnnc1SCc1ccccc1[N+](=O)[O-],AC50,Cytochrome P450 1A2,15.8 µM (inconclusive)
COc1ccc(NC(=O)N2CC3(CCN(C(=O)c4c(C)noc4C)CC3)C2)cc1,AC50,Cytochrome P450 2C19; read-out: AC50,39.8 µM (inconclusive)
Fc1cc(F)c2nc(Nc3nc4c(F)cccc4s3)sc2c1,AC50,INS1,4.34 µM (active)
COc1ccc(-c2nc(CN3CCCCC3c3cccnc3)c(C)o2)c(F)c1 (configuration not stated),EC50,[1],1.45 µM (active)
same,EC50,[2],> 60 µM (inconclusive)
Cc1cc2c(cc1C)NC(c1nc3ccccc3[nH]1)C1=C(O)CC(C)(C)CC1=N2 (configuration not stated),AC50,Cytochrome P450 2C19; read-out: AC50,1.78 µM (inconclusive)
same,AC50,Cytochrome P450 1A2,25.1 µM (inconclusive)
Cc1cc(=O)[nH]c2ccccc12,AC50,Cytochrome P450 2C19; read-out: AC50,20 µM (inconclusive)
CNc1cc(NS(=O)(=O)c2ccc(N)cc2)nc(NC)n1,AC50,Cytochrome P450 2C19,inconclusive
CC1(C)Oc2ccc(C#N)cc2[C@H](N2CCCC2=O)[C@H]1O [(-)-CROMAKALIM],AC50,Cytochrome P450 1A2,10 µM (inconclusive) and 20 µM (inconclusive)
COC(=O)Nc1nc2cc(C(=O)c3ccc(F)cc3)ccc2[nH]1 [FLUBENDAZOLE],EC50,[5],< 0.1 µM (active)
same,EC50,[6],0.323 µM (active)
same,EC50,[7],0.225 µM (active)
CN1CCC(=C2c3ccccc3CC(=O)c3sccc32)CC1 [KETOTIFEN],AC50,Cytochrome P450 2C19,inconclusive
